# Experimental data from PMC5298231, “The Malaria Parasite's Lactate Transporter PfFNT Is the Target of Antiplasmodial Compounds Identified in Whole Cell Phenotypic Screens” (PLoS Pathogens, 2017).
# Read-outs that look alike come from different tables or passages of the source.
# Tested on: erythrocytes infected with 3D7 trophozoites
# Format: cell-based, Plasmodium falciparum
# Conditions: for Folate level, Log2 (treated vs control) / Geranylgeranyl pyrophosphate level, Log2 (treated vs control): sheet Log2; for Folate level, Log2 (treated vs control): medMz 440.132; for Geranylgeranyl pyrophosphate level, Log2 (treated vs control): medMz 449.186; for Ratio, Farnesyl diphosphate: metabolite Farnesyl diphosphate (medMz 381.123); for Ratio, Folate: metabolite Folate (medMz 440.132); for Ratio, Geranylgeranyl pyrophosphate: metabolite Geranylgeranyl pyrophosphate (medMz 449.186)
compound,measurement,setting,value
COc1ccc2c(c1)OC(O)(C(F)(F)C(F)(F)F)CC2=O (stereo not shown) [MMV007839],NADH log2 ratio (+MMV007839/-MMV007839),"Av 6hr, 6 μM",-2.783
same,NADP+ log2 ratio (+MMV007839/-MMV007839),"Av 6hr, 6 μM",-0.3285
same,Octoluse Bisphosphate log2 ratio (+MMV007839/-MMV007839),"Av 6hr, 6 μM",0.9087
same,Ornithine log2 ratio (+MMV007839/-MMV007839),"Av 6hr, 6 μM",-0.4177
same,Orotate log2 ratio (+MMV007839/-MMV007839),"Av 6hr, 6 μM",-1.6355
same,Orotidine 5-phosphate log2 ratio (+MMV007839/-MMV007839),"Av 6hr, 6 μM",-1.249
same,Orotidine log2 ratio (+MMV007839/-MMV007839),"Av 6hr, 6 μM",-0.6749
same,PAEF log2 ratio (+MMV007839/-MMV007839),"Av 6hr, 6 μM",0.8061
same,PAVH log2 ratio (+MMV007839/-MMV007839),"Av 6hr, 6 μM",-0.07734
same,PD log2 ratio (+MMV007839/-MMV007839),"Av 6hr, 6 μM",1.197
same,PDAV log2 ratio (+MMV007839/-MMV007839),"Av 6hr, 6 μM",1.2
same,PE log2 ratio (+MMV007839/-MMV007839),"Av 6hr, 6 μM",1.699
same,PEE log2 ratio (+MMV007839/-MMV007839),"Av 6hr, 6 μM",1.042
same,PHF log2 ratio (+MMV007839/-MMV007839),"Av 6hr, 6 μM",0.9826
same,PPVQ log2 ratio (+MMV007839/-MMV007839),"Av 6hr, 6 μM",-0.2514
same,PVNF log2 ratio (+MMV007839/-MMV007839),"Av 6hr, 6 μM",0.6194
same,PVQ log2 ratio (+MMV007839/-MMV007839),"Av 6hr, 6 μM",1.502
same,PVQA log2 ratio (+MMV007839/-MMV007839),"Av 6hr, 6 μM",-0.1116
same,Pantothenate log2 ratio (+MMV007839/-MMV007839),"Av 6hr, 6 μM",-0.4384
same,Phenylalanine log2 ratio (+MMV007839/-MMV007839),"Av 6hr, 6 μM",0.1437
same,Phosphoenolpyruvate log2 ratio (+MMV007839/-MMV007839),"Av 6hr, 6 μM",0.09862
same,Pipecolate log2 ratio (+MMV007839/-MMV007839),"Av 6hr, 6 μM",1.035
same,Proline log2 ratio (+MMV007839/-MMV007839),"Av 6hr, 6 μM",0.2232
same,Pyridoxine log2 ratio (+MMV007839/-MMV007839),"Av 6hr, 6 μM",0.219
same,Pyruvate log2 ratio (+MMV007839/-MMV007839),"Av 6hr, 6 μM",2.1785
same,Ribose-5-phosphate log2 ratio (+MMV007839/-MMV007839),"Av 6hr, 6 μM",0.5462
same,S-Adenosyl-L-homocysteine log2 ratio (+MMV007839/-MMV007839),"Av 6hr, 6 μM",-0.1116
same,SDGLA log2 ratio (+MMV007839/-MMV007839),"Av 6hr, 6 μM",-0.7918
same,SFGD log2 ratio (+MMV007839/-MMV007839),"Av 6hr, 6 μM",-0.1482
same,Sedoheptoluse bisphosphate log2 ratio (+MMV007839/-MMV007839),"Av 6hr, 6 μM",-0.5568
same,Sedoheptulose-1/7-phosphate log2 ratio (+MMV007839/-MMV007839),"Av 6hr, 6 μM",0.1885
same,Serine log2 ratio (+MMV007839/-MMV007839),"Av 6hr, 6 μM",0.02139
same,Succinate log2 ratio (+MMV007839/-MMV007839),"Av 6hr, 6 μM",0.1816
same,Succinate semialdehyde log2 ratio (+MMV007839/-MMV007839),"Av 6hr, 6 μM",-0.438
same,TNVK log2 ratio (+MMV007839/-MMV007839),"Av 6hr, 6 μM",-0.1213
same,Threonine log2 ratio (+MMV007839/-MMV007839),"Av 6hr, 6 μM",0.6908
same,Tryptophan log2 ratio (+MMV007839/-MMV007839),"Av 6hr, 6 μM",-0.04867
same,Tyrosine log2 ratio (+MMV007839/-MMV007839),"Av 6hr, 6 μM",0.1841
same,UDP log2 ratio (+MMV007839/-MMV007839),"Av 6hr, 6 μM",-0.5016
same,UDP-N-acetyl-D-glucosamine log2 ratio (+MMV007839/-MMV007839),"Av 6hr, 6 μM",-0.184
same,UDP-glucose log2 ratio (+MMV007839/-MMV007839),"Av 6hr, 6 μM",0.0071
same,UMP log2 ratio (+MMV007839/-MMV007839),"Av 6hr, 6 μM",-0.08541
same,Uracil log2 ratio (+MMV007839/-MMV007839),"Av 6hr, 6 μM",-0.6376
same,Uric Acid log2 ratio (+MMV007839/-MMV007839),"Av 6hr, 6 μM",-0.1851
same,VD log2 ratio (+MMV007839/-MMV007839),"Av 6hr, 6 μM",1.833
same,Valine log2 ratio (+MMV007839/-MMV007839),"Av 6hr, 6 μM",0.1675
same,Xanthine log2 ratio (+MMV007839/-MMV007839),"Av 6hr, 6 μM",-0.5471
same,dADP log2 ratio (+MMV007839/-MMV007839),"Av 6hr, 6 μM",-0.4329
same,dATP log2 ratio (+MMV007839/-MMV007839),"Av 6hr, 6 μM",0.01926
same,dCDP log2 ratio (+MMV007839/-MMV007839),"Av 6hr, 6 μM",0.5589
same,dGMP log2 ratio (+MMV007839/-MMV007839),"Av 6hr, 6 μM",-0.355
same,dTMP log2 ratio (+MMV007839/-MMV007839),"Av 6hr, 6 μM",0.4667
same,dTTP log2 ratio (+MMV007839/-MMV007839),"Av 6hr, 6 μM",0.06317
same,dUMP log2 ratio (+MMV007839/-MMV007839),"Av 6hr, 6 μM",1.053
same,myo-Inositol log2 ratio (+MMV007839/-MMV007839),"Av 6hr, 6 μM",-0.254
same,sn-Glycerol 3-phosphate log2 ratio (+MMV007839/-MMV007839),"Av 6hr, 6 μM",1.275
same,sn-glycero-3-Phospho-1-inositol log2 ratio (+MMV007839/-MMV007839),"Av 6hr, 6 μM",0.1242
same,Hexose-phosphate log2 ratio (+MMV007839/-MMV007839),"Av 6hr, 6 μM, medRt 15.0954",-0.2639
same,6-Phospho-D-gluconate log2 ratio (+MMV007839/-MMV007839),"Av 6hr, 6 μM, medRt 16.8944",-0.736
same,Hexose-phosphate log2 ratio (+MMV007839/-MMV007839),"Av 6hr, 6 μM, medRt 17.0788",-1.183
same,6-Phospho-D-gluconate log2 ratio (+MMV007839/-MMV007839),"Av 6hr, 6 μM, medRt 17.4636",-0.3794
same,"Folate level, Log2 (treated vs control)","Exp1, 1hr",-0.2263
same,"Geranylgeranyl pyrophosphate level, Log2 (treated vs control)","Exp1, 1hr",-0.6569
same,"Folate level, Log2 (treated vs control)","Exp1, 3hr",-0.3477
same,"Geranylgeranyl pyrophosphate level, Log2 (treated vs control)","Exp1, 3hr",-0.8295
same,"Folate level, Log2 (treated vs control)","Exp1, 6hr",-0.6125
same,"Geranylgeranyl pyrophosphate level, Log2 (treated vs control)","Exp1, 6hr",-0.9068
same,"Folate level, Log2 (treated vs control)","Exp2, 1hr",-0.1779
same,"Geranylgeranyl pyrophosphate level, Log2 (treated vs control)","Exp2, 1hr",-0.5207
same,"Folate level, Log2 (treated vs control)","Exp2, 3hr",-0.4245
same,"Geranylgeranyl pyrophosphate level, Log2 (treated vs control)","Exp2, 3hr",-0.4872
same,"Folate level, Log2 (treated vs control)","Exp2, 6hr",-0.3923
same,"Geranylgeranyl pyrophosphate level, Log2 (treated vs control)","Exp2, 6hr",-0.5435
same,"Folate level, Log2 (treated vs control)","Exp3, 1hr",-0.2907
same,"Geranylgeranyl pyrophosphate level, Log2 (treated vs control)","Exp3, 1hr",-0.5583
same,"Folate level, Log2 (treated vs control)","Exp3, 3hr",-0.3083
same,"Geranylgeranyl pyrophosphate level, Log2 (treated vs control)","Exp3, 3hr",-0.7313
same,"Folate level, Log2 (treated vs control)","Exp3, 6hr",-0.4777
same,"Geranylgeranyl pyrophosphate level, Log2 (treated vs control)","Exp3, 6hr",-0.686
same,"Ratio, Farnesyl diphosphate",Exp1_1hr,1.012
same,"Ratio, Farnesyl diphosphate",Exp1_3hr,0.9128
same,"Ratio, Farnesyl diphosphate",Exp1_6hr,0.7497
same,"Ratio, Farnesyl diphosphate",Exp2_1hr,1.018
same,"Ratio, Farnesyl diphosphate",Exp2_3hr,1.006
same,"Ratio, Farnesyl diphosphate",Exp2_6hr,0.9903
same,"Ratio, Farnesyl diphosphate",Exp3_1hr,0.9698
same,"Ratio, Farnesyl diphosphate",Exp3_3hr,1
same,"Ratio, Farnesyl diphosphate",Exp3_6hr,0.7551
same,"Ratio, Folate",Exp1_1hr,0.8548
same,"Ratio, Folate",Exp1_3hr,0.7858
same,"Ratio, Folate",Exp1_6hr,0.6541
same,"Ratio, Folate",Exp2_1hr,0.884
same,"Ratio, Folate",Exp2_3hr,0.7451
same,"Ratio, Folate",Exp2_6hr,0.7619
same,"Ratio, Folate",Exp3_1hr,0.8175
same,"Ratio, Folate",Exp3_3hr,0.8076
same,"Ratio, Folate",Exp3_6hr,0.7181
same,"Ratio, Geranylgeranyl pyrophosphate",Exp1_1hr,0.6342
same,"Ratio, Geranylgeranyl pyrophosphate",Exp1_3hr,0.5627
same,"Ratio, Geranylgeranyl pyrophosphate",Exp1_6hr,0.5334
same,"Ratio, Geranylgeranyl pyrophosphate",Exp2_1hr,0.697
same,"Ratio, Geranylgeranyl pyrophosphate",Exp2_3hr,0.7134
same,"Ratio, Geranylgeranyl pyrophosphate",Exp2_6hr,0.6861
same,"Ratio, Geranylgeranyl pyrophosphate",Exp3_1hr,0.6791
same,"Ratio, Geranylgeranyl pyrophosphate",Exp3_3hr,0.6023
same,"Ratio, Geranylgeranyl pyrophosphate",Exp3_6hr,0.6216
